Test results published in patent publication EP3502102A1, “STING INHIBITORS” (ECOLE POLYTECHNIQUE FEDERALE DE LAUSANNE (EPFL), priority 2017, dated 2019).

Columns and labels:
[1] = Solubility (comparison); format: physicochemical
[2] = system: Trex1 KO mice
[3] = molecular target: T1, endogenous human transferrin receptor (Homo sapiens, UniProt P02786); test: Metabolic labelling with [3H] palmitate, endogenous transferrin receptor; format: cell-based; conditions: 1 µM
T1 construct: endogenous in cells; host or cells: HEK293T
T1 sequence (P02786 whole entry): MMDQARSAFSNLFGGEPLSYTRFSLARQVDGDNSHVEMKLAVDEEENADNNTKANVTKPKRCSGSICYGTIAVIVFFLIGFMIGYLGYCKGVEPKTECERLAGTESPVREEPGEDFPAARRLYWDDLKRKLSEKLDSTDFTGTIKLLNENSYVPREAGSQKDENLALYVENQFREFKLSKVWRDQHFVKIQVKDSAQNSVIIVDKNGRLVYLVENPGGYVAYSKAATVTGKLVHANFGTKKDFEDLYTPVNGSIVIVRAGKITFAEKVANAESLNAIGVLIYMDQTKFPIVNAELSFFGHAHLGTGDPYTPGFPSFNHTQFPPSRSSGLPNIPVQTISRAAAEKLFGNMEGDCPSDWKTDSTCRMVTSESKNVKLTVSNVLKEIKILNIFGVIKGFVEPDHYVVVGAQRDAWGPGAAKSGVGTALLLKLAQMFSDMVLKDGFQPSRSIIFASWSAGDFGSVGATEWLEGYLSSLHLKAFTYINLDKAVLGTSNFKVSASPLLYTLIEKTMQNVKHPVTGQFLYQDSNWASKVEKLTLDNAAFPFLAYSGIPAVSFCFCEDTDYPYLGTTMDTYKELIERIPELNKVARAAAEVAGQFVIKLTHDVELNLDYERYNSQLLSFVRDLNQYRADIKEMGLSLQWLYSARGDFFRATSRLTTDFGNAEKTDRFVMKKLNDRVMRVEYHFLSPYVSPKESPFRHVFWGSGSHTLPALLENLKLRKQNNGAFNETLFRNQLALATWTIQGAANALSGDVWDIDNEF

[4] = molecular target: T2, STING (Mus musculus, UniProt Q3TBT3); test: Blue native gel assay of STING clusters; format: cell-based; parameters: expressed in transfected cells; host or cells: HEK293T; conditions: C-178, C-176 1 µM, 2-BP 50 µM; CMA 1.5 h
T2 sequence (Q3TBT3 1-378): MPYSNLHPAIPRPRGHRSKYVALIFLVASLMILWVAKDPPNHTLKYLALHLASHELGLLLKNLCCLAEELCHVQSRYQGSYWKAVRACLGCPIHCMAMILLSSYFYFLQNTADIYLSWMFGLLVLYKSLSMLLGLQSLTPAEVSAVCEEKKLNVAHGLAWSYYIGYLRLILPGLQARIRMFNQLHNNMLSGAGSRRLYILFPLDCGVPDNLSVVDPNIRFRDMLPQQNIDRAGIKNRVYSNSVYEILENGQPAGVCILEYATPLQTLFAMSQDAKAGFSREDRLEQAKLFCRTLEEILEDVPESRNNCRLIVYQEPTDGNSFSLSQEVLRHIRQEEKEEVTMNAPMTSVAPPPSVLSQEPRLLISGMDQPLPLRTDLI
Description: Reporter activity was measured 16 h after compound treatment. A nonlinear regression analysis was performed. […] Circles indicate substitutes compared to C-176. d, e, Chemical compounds from (c) were tested at 0.5 µM for inhibitory activity in HEK293T cells transfected with STING (e) or RIG-I (f) in conjunction with IFN-• luciferase reporter, respectively. b, e, f, Values of inhibitor-treated cells were normalized to DMSO-treated cells. […] Cytokine levels were normalized to DMSO-treated control cells. A nonlinear regression analysis was performed for cGAMP stimulation. b, c, BMDMs were pre-treated with C-178 (0.25 µM) and stimulated with cGAMP, cyclic di-GMP, CMA, 90mer dsDNA or LPS for 3 h. The induction of Ifnb1 mRNA levels was assessed by RT-qPCR. d, Heatmaps of RNA sequencing analysis of BMDMs treated with DMSO or CMA and with or without addition of C-178. […] Reporter activity was measured 16 h after transfection and values were normalized to DMSO-treated control cells. c, BMDMs were treated with C-178 (0.25 µM) for 1 h, washed or left untreated and after an additional hour stimulated with cGAMP. […] Flag-STING was immunoprecipitated from whole cell lysate and analysed by autoradiography. In parallel, cell lysates were analysed by immunoblotting for p-TBK1 and STING. d, HEK293T cells expressing STING were treated as indicated (C-178 (1 µM)) and stimulated with CMA for 1.5 h. […]

[5] = mouse, in vivo, ip
[6] = molecular target: T2, STING; test: Flag immunoprecipitation, recruitment of TBK1 to STING; format: cell-based; parameters: expressed in transfected cells; host or cells: HEK293T; conditions: HEK293T expressing Flag-STING; 1 µM; CMA 2 h
[7] = molecular target: T2, STING; test: IFN-beta luciferase reporter in HEK293T cells transfected with STING, alone or with a cyclic dinucleotide synthase; format: cell-based; parameters: expressed in transfected cells; host or cells: HEK293T; conditions: wild-type HEK293T; STING expressed alone or in conjunction with cdG-Syn; 0.01-5µM; 16 h
Description: Reporter activity was measured 16 h after compound treatment. A nonlinear regression analysis was performed. […] Cytokine levels were normalized to DMSO-treated control cells. […] Nuclei were stained with DAPI. […] Depicted genes were measured by RT-qPCR. […] 16 h later Luciferase activity was measured. […] Flag-STING was immunoprecipitated and analysed by autoradiography.
HEK293T cells expressing murine STING with an N-terminal mCherry-tag ^28 were transfected using GeneJuice (Millipore) with a construct encoding for cyclic di-GMP synthase in conjunction with an IFN-• firefly luciferase reporter plasmid. 3 h after transfection cells were seeded in […] (Corning) coated with library compounds. For each compounds, a 40 nl volume was selected to obtain a concentration of 10 µM in the assay plates. The amount of DMSO in each well was normalised to 0.1%. After overnight treatment, cells were lysed in lysis buffer (25 mM Tris-phosphate (pH 7.8), 2 mM DTT, 2 mM 1,2-diaminocyclohexane-N,N,N',N'-tetraacetic acid, 10% glycerol, 1% Triton® X-100) for 20 min followed by the addition of firefly luciferase. Reporter activity was measured using a Tecan Infinite plate reader. The screen was performed using on ∼ 20.000 compounds from a chemically diverse compound collection available at the BSF core facility at EPFL.
In these cells, transient transfection of vectors encoding for cyclic di-GMP synthase (cdG-Syn) and an IFN-• reporter leads to robust induction of firefly luciferase activity. We used this system to perform a high-throughput chemical screen with a library of ∼ 20.000 small molecule compounds (Fig. 6b). To increase the selectivity of candidate compounds against the STING pathway, hits from the primary screen were counter-screened for their effect on RIG-I-driven activation of the IFN-• reporter. […] To further validate the two small molecules, we treated wild-type HEK293T cells with C-178 and C-176, in which STING was either expressed alone or in conjunction with cdG-Syn. […] We next conducted a limited structure-activity relationship (SAR) analysis. Since both C-178 and C-176 share a characteristic nitrofuran moiety, we prepared analogues of C-176/8 in which this structural motif was substituted (Fig. 1c).

For `O=C(Nc1ccc(I)cc1)c1ccc([N+](=O)[O-])o1` [C-176, N-(4-iodophenyl)-5-nitro-2-furamide], the “solubility relative to C-178” value [1] was “improved solubility”, the “serum concentration of type I IFNs” value ([2]; TREX1 KO mice, compared to vehicle, 11 days) was “significant decrease” and the “histological analysis of the heart” value ([2]; TREX1 KO mice, 11 days) was “decreased cellularity”. For the same molecule, the “overt toxicity (weight changes)” value ([2]; mouse, in vivo) was “no signs of overt toxicity”, the “[^3H] palmitate labelling of the endogenous transferrin receptor” value [3] was “neither C-178 nor C-176 affected” and the “assembly of STING clusters” value [4] was “blocked”. For the same molecule, the serum half-life [5] was “short”, the “recruitment of TBK1” value [6] was “block” and the “half-maximal inhibitory concentration (IC50) values, IFN-• reporter activity” value [7] was “nanomolar”.
